Experimental data from patent US6407130B1, “Carboxamide-substituted benzimidazoles having tryptase-inhibiting activity” (Boehringer Ingelheim Pharma KG, priority 1999, dated 2002).
Structures can show the parent of a compound that is named as a salt.

Biological target: T1, rh beta tryptase (Homo sapiens, UniProt Q15661)
T1 construct: purchased Promega
Experiment: tryptase inhibition test (cleavage of N-p-tosyl-Gly-Pro-Lys-para-nitroaniline, p-nitroaniline measured at 405 nm)
Type: biochemical
Conditions: Tris HCl buffer pH 7.4 with calcium and heparin; substrate 0.6 mM; 5 minutes' pre-incubation, 5 minutes incubation at 37° C.
Method: The compounds according to the invention are characterised by their tryptase-inhibiting activity. This ability to inhibit tryptase was investigated using the test described as follows. The measurement is carried out in Tris HCl buffer (100 mM), which additionally contains calcium (5 mM) and heparin ([…]), at pH 7.4. The standard used is rh beta tryptase which may be obtained commercially from Promega, for example. The substrate used is N-p-tosyl-Gly-Pro-Lys-para-nitroaniline in a concentration of 0.6 mM. The substrate is digested with tryptase to form p-nitroaniline which can be measured at 405 nm. Usually, an incubation period of 5 minutes and an incubation temperature of 37° C. are chosen. The enzyme activity used is 0.91 U/ml. The measurements are carried out in an Autoanalyser (Cobas Bio) made by Hofmann LaRoche. The potential inhibitory substances are used in concentrations of 10 μM in the screening, the inhibition of the tryptase being given in percent. The IC50 is determined at over 70% inhibition (concentration at which 50% of the enzyme activity is inhibited). After 5 minutes' pre-incubation of the potential inhibitory substances, the substrate is added to start the reaction, the formation of p-nitroaniline being taken as a measurement of the enzyme activity after 5 minutes, after testing the linearity.

T1 sequence (Q15661 31-275): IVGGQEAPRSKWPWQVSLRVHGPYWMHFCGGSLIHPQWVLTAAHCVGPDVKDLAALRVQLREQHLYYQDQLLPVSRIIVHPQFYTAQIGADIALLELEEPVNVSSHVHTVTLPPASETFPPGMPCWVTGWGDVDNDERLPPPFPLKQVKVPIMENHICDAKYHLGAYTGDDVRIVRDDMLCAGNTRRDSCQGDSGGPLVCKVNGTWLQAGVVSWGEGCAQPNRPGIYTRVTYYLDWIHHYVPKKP

Compound | IC50 [nM]
Cn1c(CCc2ccc(C(=N)N)cc2)nc2cc(N(Cc3cccc4ccccc34)C(=O)CO)ccc21 [Example 77, N-{2-[2-(4-Amidinophenyl)-ethyl]-1-methyl-benzimidazol-5-yl}-N-(- naphthylmethyl)-[3-hydroxy-acetamide]-hydrochloride] | 110
N-{2-[2-(4-Amidinophenyl)-ethyl]-1- methyl-benzimidazol-5-yl}-N-( - naphthylmethylamino)-[2-(4- trifluoromethylbenzylamino)- acetamide]-dihydrochloride [Example 44] | 31
N-{2-[2-(4-Amidinophenyl)-ethyl]-1- methyl-benzimidazol-5-yl}-N-( - naphthylmethyl)-[2-(1-pyridin-2-yl- piperazin-4-yl)-acetamide]-trihydro- chloride [Example 79] | 20.1
CN(C)CCCCC(=O)N(Cc1ccccc1)c1ccc2c(c1)nc(CCc1ccc(C(=N)N)cc1)n2C [Example 26, N-{2-[2-(4-Amidinophenyl)-ethyl]-1-methyl-benzimidazol-5-yl}-N-benzyl-[5-dimethylamino-pentanoic acid amide]-dihydrochloride] | 53
Cn1c(CCc2ccc(C(=N)N)cc2)nc2cc(N(Cc3ccc4ccccc4c3)C(=O)CNCc3ccc([N+](=O)[O-])cc3)ccc21 [Example 53, N-{2-[2-(4-Amidinophenyl)-ethyl]-1-methyl-benzimidazol-5-yl}-N-(β-naphthylmethyl)-[2-(4-nitrobenzylamino)-acetamide]-hydrochloride] | 92
Cn1c(CCc2ccc(C(=N)N)cc2)nc2cc(N(Cc3ccc4ccccc4c3)C(=O)CCc3ccc(C(=N)N)cc3)ccc21 [Example 9, N-{2-[2-(4-Amidinophenyl)-ethyl]-1- -methy-benzimidazol-5-yl}-N-β-naphthylmethyl-[3-(4-amidinophenyl)-propionamide]-dihydrochloride] | 24
CN(C)CCCC(=O)N(Cc1cccc2ccccc12)c1ccc2c(c1)nc(CCc1ccc(C(=N)N)cc1)n2C [Example 29, N-{2-[2-(4-Amidinophenyl)-ethyl]-1-methyl-benzimidazol-5-yl}-N-( - naphthylmethyl)-[4-dimethylamino-butanoic acid amide]-dihydrochloride] | 38
Cn1c(CCc2ccc(C(=N)N)cc2)nc2cc(N(Cc3cccc4ccccc34)C(=O)CCCc3ccc(N)cc3)ccc21 [Example 47, N-{2-[2-(4-Amidinophenyl)-ethyl]-1-methyl-benzimidazol-5-yl}-N-( - naphthylmethyl)-[4-(4-aminophenyl)-butyroamide]-dihydrochloride] | 12
Cn1c(CCc2ccc(C(=N)N)cc2)nc2cc(N(Cc3cccc4ccccc34)C(=O)CNCc3cccc(C(=N)N)c3)ccc21 [Example 46, N-{2-[2-(4-Amidinophenyl)-ethyl]-1-methyl-benzimidazol-5-yl}-N-( - naphthylmethyl)-[2-(3-amidinobenzylamino)-acetamide]-trihydrochloride] | 27
Cn1c(CCc2ccc(C(=N)N)cc2)nc2cc(NC(=O)C(N)Cc3ccc(C(=N)N)cc3)ccc21 (stereo not shown) [Example 4, N-{2-[2-(4-Amidinophenyl)-ethyl]-1-methyl-benzimidazol-5-yl}-[2-amino-3-(p-amidinophenyl)-propionic Acid Amide]-trihydrochloride] | 55
CN(C(=O)CCC1CCN(Cc2ccccc2)CC1)c1ccc2c(c1)nc(CCc1ccc(C(=N)N)cc1)n2C [Example 2, N-{2-[2-(4-Amidinophenyl)-ethyl]-1-methyl-benzimidazol-5-yl}-N-methyl-[3-(N-benzyl-piperid-4-yl)-propionamide]-dihydrochloride] | 190
CN(CC(=O)N(Cc1cccc2ccccc12)c1ccc2c(c1)nc(CCc1ccc(C(=N)N)cc1)n2C)Cc1ccc(N2CCCC2)cc1 [Example 83, N-{2-[2-(4-Amidinophenyl)-ethyl]-1-methyl-benzimidazol-5-yl}-N-( - naphthylmethyl)-[2-(N-(4-pyrrolidin-1-ylbenzyl)-N-methylamino)-acetamide]-dihydrochloride] | 7.6
Cn1c(CCc2ccc(C(=N)N)cc2)nc2cc(N(Cc3cccc4ccccc34)C(=O)Cc3cccc4ccccc34)ccc21 [Example 80, N-{2-[2-(4-Amidinophenyl)-ethyl]-1-methyl-benzimidazol-5-yl}-N-( - naphthylmethyl)-[2-( -naphthyl)-acetamide]-hydrochloride] | 30.1
N-{2-[2-(4-Amidinophenyl)-ethyl]-1- methyl-benzimidazol-5-yl}-N-( - naphthyl)-[4- dimethylaminobenzylamino- acetamide]-dihydrochloride [Example 21] | 11
Cn1c(CCc2ccc(C(=N)N)cc2)nc2cc(N(Cc3ccccc3)C(=O)CCc3ccc(C(=N)N)cc3)ccc21 [Example 12, N-{2-[2-(4-Amidinophenyl)-ethyl]-1-methyl-benzimidazol-5-yl}-N-benzyl-[3-(4-amidinophenyl)-propionamide]-dihydrochloride] | 30
CN(C)CCCC(=O)N(Cc1ccccc1)c1ccc2c(c1)nc(CCc1ccc(C(=N)N)cc1)n2C [Example 37, N-{2-[2-(4-Amidinophenyl)-ethyl]-1-methyl-benzimidazol-5-yl}-N-benzyl-[4-dimethyl-amino-butanoic acid amide]-dihydrochloride] | 76

More lines, now with the values ahead:

IC50 [nM] | Compound
77 | Cn1c(CCc2ccc(C(=N)N)cc2)nc2cc(N(Cc3ccccc3)C(=O)CCCNC(=N)N)ccc21 [Example 39, N-{2-[2-(4-Amidinophenyl)-ethyl]-1-methyl-benzimidazol-5-yl}-N-benzyl-[4-guanidino-butanoic acid amide]-dihydrochloride]
28 | CN(CC(=O)N(Cc1cccc2ccccc12)c1ccc2c(c1)nc(CCc1ccc(C(=N)N)cc1)n2C)Cc1ccccc1 [Example 63, N-{2-[2-(4-Amidinophenyl)-ethyl]-1-methyl-benzimidazol-5-yl}-N-( - naphthylmethyl)-[2-(N-benzyl-N-methylamino)-acetamide]-dihydrochloride]
57 | Cn1c(CCc2ccc(C(=N)N)cc2)nc2cc(N(Cc3ccccc3)C(=O)CCCCN)ccc21 [Example 32, N-{2-[2-(4-Amidinophenyl)-ethyl]-1-methyl-benzimidazol-5-yl}-N-benzyl-[5-amino-pentanoic acid amide]-dihydrochloride]
8.6 | CCN(CC)c1ccc(CNCC(=O)N(Cc2cccc3ccccc23)c2ccc3c(c2)nc(CCc2ccc(C(=N)N)cc2)n3C)cc1 [Example 54, N-{2-[2-(4-Amidinophenyl)-ethyl]-1-methyl-benzimidazol-5-yl}-N-( - naphthylmethyl)-[2-(4-diethylaminobenzylamino)-acetamide]-dihydrochloride]
16 | Cn1c(CCc2ccc(C(=N)N)cc2)nc2cc(N(Cc3cccc4ccccc34)C(=O)CCc3cccc(C(=N)N)c3)ccc21 [Example 19, N-{2-[2-(4-Amidinophenyl)-ethyl]-1-methyl-benzimidazol-5-yl}-N-- naphthylmethyl-[3-(3-amidinophenyl)-propionamide]-dihydrochloride]
11 | Cn1c(CCc2ccc(C(=N)N)cc2)nc2cc(N(Cc3cccc4ccccc34)C(=O)CCCc3ccc([N+](=O)[O-])cc3)ccc21 [Example 42, N-{2-[2-(4-Amidinophenyl)-ethyl]-1-methyl-benzimidazol-5-yl}-N-(α-naphthylmethyl)-[4-(4-nitrophenyl)-butyroamide]-hydrochloride]
21.3 | CN(C)CCCNCC(=O)N(Cc1cccc2ccccc12)c1ccc2c(c1)nc(CCc1ccc(C(=N)N)cc1)n2C [Example 78, N-{2-[2-(4-Amidinophenyl)-ethyl]-1-methyl-benzimidazol-5-yl}-N-(α-naphthylmethyl)-[2-(N-(3-dimethylaminopropyl)-amino)-acetamide]-trihydrochloride]

System: not given
Experiment: not given
Conditions: not given

melting point [°C] | Compound
> 260 | Cn1c(CCc2ccc(C(=N)N)cc2)nc2cc(NC(=O)C(N)Cc3ccc(C(=N)N)cc3)ccc21 (stereo not shown) (as salt: hydrochloride) [Example 4, N-{2-[2-(4-Amidinophenyl)-ethyl]-1-methyl-benzimidazol-5-yl}-[2-amino-3-(p-amidinophenyl)-propionic Acid Amide]-trihydrochloride]
> 220 | CC(C)CN(C(=O)CCc1ccc(C(=N)N)cc1)c1ccc2c(c1)nc(CCc1ccc(C(=N)N)cc1)n2C (as salt: hydrochloride) [Example 5, N-{2-[2-(4-Amidinophenyl)-ethyl]-1-methyl-benzimidazol-5-yl}-N-isobutyl-[3-(4-amidinophenyl)-propionamide]-dihydrochloride]
